Results: patent EP0326640B1, “(1R,5S,6S)-2-substituted thio-6 (R)-1-hydroxyethyl -1-methyl-carbapenem - carboxylic acid derivatives” (LEDERLE (JAPAN) LTD., priority 1987, dated 1989)
In brackets after ≈: the same amount, converted by molar mass. Where two headings read alike, the source gives them in different places.

How the values were obtained:
Format in all cases: cell-based
Proteus vulgaris OX-19 = assay: Antibacterial test, agar plate dilution method (MIC), standard strains; conditions: Proteus vulgaris, OX19, 18 h
Description: (§1) The antibacterial activities were tested by an agar plate dilution method in accordance with the standard method of The Japanese Chemotherapy Society [Chemotherapy, Vol. 29, 76-79 (1981)].
(§2) A Mueller-Hinton (MH) agar liquid medium of a test microorganism was cultured overnight at 37°C and the resultant culture medium was diluted with a buffered saline gelatin (BSG) solution to contain approximately 10⁶ cells of the test microorganisms per milliliter, and then the diluted solution was inoculated with a microplanter at the rate of approximately 5 microliters on a MH agar medium containing a test compound. This medium was then incubated at 37°C for 18 hours. The minimum inhibitory concentration (MIC) is determined as a minimum concentration in which no test microorganism could grow. It is noted here that the test organisms used were all standard strains.

[1] = test system: Morganella morganii IFO3848; assay: as above; conditions: Morganella morganii, IFO3848, 18 h, MH agar, 37°C, read-out: MIC
Description: as §1, §2

[2] = test system: Providencia rettgeri IFO 3850; assay: as above; conditions: Providencia rettgeri, IFO3850, 18 h, MH agar, 37°C, read-out: MIC
Description: as §1, §2

[3] = test system: Serratia marcescens IAM1184; assay: as above; conditions: MH agar, 37°C
Description: as §1, §2

[4] = test system: Pseudomonas aeruginosa IFO 3445; assay: as above; conditions: IFO3445, MH agar, 37°C, 18 hours, read-out: MIC
Description: as §1, §2

[5] = test system: Salmonella enteritidis G14; assay: as above; conditions: Salmonella enterica, MH agar, 37°C
Description: as §1, §2

[6] = test system: Pseudomanas aeruginosa NCTC 10940; assay: as above; conditions: 18 h, MH agar, 37°C, read-out: MIC
Description: as §1, §2

[7] = test system: Proteus mirabilis IFO3849; assay: as above; conditions: Proteus mirabilis, IFO3849, 18 h
Description: as §1, §2

[8] = test system: Salmonella paratyphi 1015; assay: as above; conditions: Salmonella enterica, MH agar, 37°C, 18 hours, read-out: MIC
Description: as §1, §2

Proteus vulgaris HX-19 = assay: as above; conditions: Proteus vulgaris, HX19, 18 h
Description: as §1, §2

Salmonella typhi 901 = assay: as above; conditions: Salmonella enterica, TYPHI, 18 h, MH agar, 37°C
Description: as §1, §2

[9] = test system: Salmonella schottmuelleri 8006; assay: as above; conditions: MH agar, 37°C, 18 hours, read-out: MIC
Description: as §1, §2

Proteus morganii GN 5375 = assay: Antibacterial activity against clinically isolated β-lactamase (cephalosporinase) producing strains (MIC); conditions: Morganella morganii, GN5375, cephalosporinase producing strain, SDA, 18 to 20 hours, read-out: MIC
Description: (§3) The antibacterial activities against clinically isolated β-lactamase producing strains were tested by the agar plate dilution method in accordance with the standard method of The Japanese Chemotherapy Society [Chemotherapy, Vol. 29, 76-79 (1981)]. A solution of a cephalosporinase producing strain stored by Episome Research Institute, prepared by incubating the strain in a sensitivity test broth (STB; product of Nissui K. K.) for 18 hours, was diluted with a fresh STB solution so that the solution contained 10⁶ cells per milliliter. The diluted solution was then inoculated as spots in a microplanter on a sensitivity disk agar-N (SDA; product of Nissui K. K.) containing a test compound. The disk agar was then incubated for 18 to 20 hours. The minimum inhibitory concentration was determined as a minimum concentration in which the test microorganism no longer grew after a 18 to 20-hour incubation.

[10] = test system: Enterobacter cloacae GN 5797; assay: as above; conditions: GN5797, cephalosporinase producing strain, SDA, 18 to 20 hours, read-out: MIC
Description: as §3

[11] = test system: Pseudomonas aeruginosa GN 918; assay: as above; conditions: GN918; Pseudomonas aeruginosa GN 918; cephalosporinase producing strain, SDA, 18 to 20 hours; read-out: MIC
Description: as §3

[12] = test system: Pseudomonas aeruginosa GN 10362; assay: as above; conditions: GN10362, cephalosporinase producing strain, SDA, 18 to 20 hours, read-out: MIC
Description: as §3

[13] = test system: Klebsiella oxytoca GN 10650; assay: as above; conditions: Klebsiella oxytoca, GN10650, Klebsiella oxytoca GN 10650; cephalosporinase producing strain, SDA, 18 to 20 hours; read-out: MIC
Description: as §3

[14] = test system: Citrobactor freundii GN 7391; assay: as above; conditions: cephalosporinase producing strain, SDA, 18 to 20 hours
Description: as §3

Serratia marcescens L-82 = assay: as above; conditions: L82, cephalosporinase producing strain, SDA, 18 to 20 hours, read-out: MIC
Description: as §3

[15] = test system: Enterobacter cloacae GN 7467; assay: as above; conditions: GN7467; Enterobacter cloacae GN 7467; cephalosporinase producing strain, SDA, 18 to 20 hours; read-out: MIC
Description: as §3

[16] = test system: Serratia marcescens GN 10857; assay: as above; conditions: Serratia marcescens, GN10857, Serratia marcescens GN 10857; cephalosporinase producing strain, SDA, 18 to 20 hours; read-out: MIC
Description: as §3

[17] = test system: Escherichia coli No. 1501; assay: as above; conditions: cephalosporinase producing strain, SDA, 18 to 20 hours, read-out: MIC
Description: as §3

[18] = test system: Pseudomonas aeruginosa GN 10367; assay: as above; conditions: Pseudomonas aeruginosa, GN10367, Pseudomonas aeruginosa GN 10367; cephalosporinase producing strain, SDA, 18 to 20 hours
Description: as §3

Escherichia coli GN 5482 = assay: as above; conditions: GN5482, cephalosporinase producing strain, SDA, 18 to 20 hours, read-out: MIC
Description: as §3

[19] = test system: Enterobacter cloacae GN 7471; assay: as above; conditions: GN7471, cephalosporinase producing strain, SDA, 18 to 20 hours, read-out: MIC
Description: as §3

[20] = test system: Citrobactor freundii GN 346; assay: as above; conditions: cephalosporinase producing strain, SDA, 18 to 20 hours
Description: as §3

Proteus morganii GN 5407 = assay: as above; conditions: Morganella morganii, GN5407, cephalosporinase producing strain, SDA, 18 to 20 hours, read-out: MIC
Description: as §3

SMILES | MIC (Proteus vulgaris OX-19) [µg/mL] | MIC [1] [µg/mL] | MIC [2] [µg/mL] | MIC [4] [µg/mL] | MIC [6] [µg/mL] | MIC [8] [µg/mL] | MIC (Proteus vulgaris HX-19) [µg/mL] | MIC (Salmonella typhi 901) [µg/mL] | MIC [9] [µg/mL] | MIC (Proteus morganii GN 5375) [µg/mL] | MIC [10] [µg/mL] | MIC [11] [µg/mL] | MIC [12] [µg/mL] | MIC [13] [µg/mL] | MIC [14] [µg/mL] | MIC (Serratia marcescens L-82) [µg/mL] | MIC [15] [µg/mL] | MIC [16] [µg/mL] | MIC [17] [µg/mL] | MIC [18] [µg/mL] | other results
C[C@@H](O)[C@H]1C(=O)N2C(C(=O)[O-])=C(SCc3cs[n+](C)n3)[C@H](C)[C@H]12 [Amorphous Compd. (14), (1R,5S,6S)-2-[(2-methyl-1,2,3-thiadiazolium-4-yl)methyl]thio-6-[(R)-1-hydroxyethyl]-1-methyl-carbapenem-3-carboxylate] | 1.56 (≈ 4.39 µM) | 0.39 (≈ 1.1 µM) | 0.05 (≈ 0.141 µM) | 0.39 (≈ 1.1 µM) | 0.39 (≈ 1.1 µM) | 1.56 (≈ 4.39 µM) | 1.56 (≈ 4.39 µM) | 0.025 (≈ 0.0703 µM) | 0.39 (≈ 1.1 µM) | 3.13 (≈ 8.81 µM) | 0.1 (≈ 0.281 µM) | 0.78 (≈ 2.19 µM) | 0.78 (≈ 2.19 µM) | 0.39 (≈ 1.1 µM) | 1.56 (≈ 4.39 µM) | 0.2 (≈ 0.563 µM) | 3.13 (≈ 8.81 µM) | 6.25 (≈ 17.6 µM) | 0.05 (≈ 0.141 µM) | 1.56 (≈ 4.39 µM) | MIC ([3]; 18 hours): 0.2 µg/mL (≈ 0.563 µM); MIC ([5]; ENTERITIDIS, 18 h): 1.56 µg/mL (≈ 4.39 µM); MIC ([7]; Proteus mirabilis IFO3849, MH agar, 37°C, 18 hours, read-out: MIC): 6.25 µg/mL (≈ 17.6 µM); MIC (Escherichia coli GN 5482): 0.05 µg/mL (≈ 0.141 µM); MIC [19]: 0.1 µg/mL (≈ 0.281 µM); MIC [20]: 0.78 µg/mL (≈ 2.19 µM); MIC (Proteus morganii GN 5407): 6.25 µg/mL (≈ 17.6 µM)
C[C@@H](O)[C@H]1C(=O)N2C(C(=O)O)=C(SCCN=CN)C[C@H]12 [Imipenem, imipenem] | 1.56 (≈ 5.21 µM) | 0.39 (≈ 1.3 µM) | 0.78 (≈ 2.61 µM) | 0.78 (≈ 2.61 µM) | 0.78 (≈ 2.61 µM) | 1.56 (≈ 5.21 µM) | 1.56 (≈ 5.21 µM) | 0.1 (≈ 0.334 µM) | 0.78 (≈ 2.61 µM) | 3.13 (≈ 10.5 µM) | 0.39 (≈ 1.3 µM) | 0.78 (≈ 2.61 µM) | 0.78 (≈ 2.61 µM) | 0.2 (≈ 0.668 µM) | 0.78 (≈ 2.61 µM) | 0.2 (≈ 0.668 µM) | 0.78 (≈ 2.61 µM) | 3.13 (≈ 10.5 µM) | 0.1 (≈ 0.334 µM) | 1.56 (≈ 5.21 µM) | MIC ([3]; Serratia marcescens, IAM1184, 18 h, read-out: MIC): 0.39 µg/mL (≈ 1.3 µM); MIC ([5]; 18 hours, read-out: MIC): 0.78 µg/mL (≈ 2.61 µM); MIC [7]: 6.25 µg/mL (≈ 20.9 µM); MIC (Escherichia coli GN 5482): 0.1 µg/mL (≈ 0.334 µM); MIC [19]: 0.2 µg/mL (≈ 0.668 µM); MIC [20]: 0.39 µg/mL (≈ 1.3 µM); MIC (Proteus morganii GN 5407): 3.13 µg/mL (≈ 10.5 µM)
